Experimental data from patent US20160338971A1, “NANO CO-ENCAPSULATION FOR THE PREVENTION AND TREATMENT OF VARIOUS DISORDERS” (priority 2015, published 2016).

Test system: Human Pancreatic cancer cells (MPanc)
Experiment: Anti-cancer efficacy in athymic nude mice (subcutaneous pancreatic tumor implant)
Type: in vivo
Conditions: 10 ug/implant in Matrigel near the tumor implant, tumors excised after 2 weeks, n=6 per group, Control 291 ± 25
Source text: Human Pancreatic cancer cells (MPanc) were implanted subcutaneously in nude mice at 1 million cells per site and after tumor growth to 150-200 mm3, animals were implanted with the various Nano composites near by the tumor implant.
The preceding data represents mean tumor weight±Standard Deviation (SD), n=6 per group, after 2 weeks of pancreatic cancer cell implant at 1 million per animals. Nano composites were implanted in a Matrigel near by the tumor implants

First: epigallocatechin-3-gallate [EGCG]
Second: Oc1ccc(C=Cc2cc(O)cc(O)c2)cc1 [Resveratrol]
The “Mean Pancreatic Tumor Weight (mg) ± SD” value of the first is lower: 145.11 ± 17.8 mg for the first, 198.44 ± 18.9 mg for the second.

Going from `C=CCSSC=CC[S+]([O-])CC=C` (mixture of isomers) [Ajoene] to `O=C1O[C@H]2[C@@H]3OC(=O)c4cc(O)c(O)c(O)c4-c4c(O)c(O)c5oc(=O)c6c(c(O)c(O)c7oc(=O)c4c5c76)-c4c(cc(O)c(O)c4O)C(=O)OC[C@H]3OC(O)[C@@H]2OC(=O)c2cc(O)c(O)c(O)c2-c2c1cc(O)c(O)c2O` (mixture of isomers) [Punicalagin], the “Mean Pancreatic Tumor Weight (mg) ± SD” value falls from 188.45 ± 15.6 mg to 146.44 ± 16.4 mg.

In the case of `C[S+]([O-])CCCCN=C=S` (centres unmarked) [Sulforaphan], the “Mean Pancreatic Tumor Weight (mg) ± SD” value is reported as 195.80 ± 21.2 mg.
